Laboratory results reported in patent US20180127800A1 (priority 2016, published 2018).

Target: HIV-1 protease (Human immunodeficiency virus type 1 group M subtype B, UniProt P04585)
Type: cell-based
Conditions: Gal4/PR cell line induced by Dox, incubated with protease inhibitor
Excerpt: This type of cleavage was successfully monitored by a previously developed assay for HIV-1. The assay was developed in mammalian cells and relied on an engineered Gal4/protease fusion protein that travels to the nucleus and activates the GFP reporter gene when inhibited. The activation or lack thereof of the reporter GFP gene can be measured and quantified via flow cytometry.
In the absence of Dox, rtTA cannot bind to the Tet-Responsive Element (TRE) and consequently, there is no GFP expression from the reporter construct. In the presence of Dox, rtTA binds to TRE and induces GFP expression. […] In the presence of Dox, PR/Gal4 is expressed; however, its autocatalytic activity results in the separation of the Gal4 domains, resulting in turn in the lack of GFP expression. However, in the presence of protease inhibitor (PI), the PR/Gal4 fusion remains intact, resulting in the induction of GFP expression.
The plasmids include the rtTA, GFP reporter and Gal4 fusions. The Gal4 plasmids include Gal4 control, Gal4/PRm (mutant) and Gal4/PR.
In order to be able to easily discriminate between cleaved and non-cleaved events (or active and non-active protease), the assay relied on the classical Gal4/UAS system broadly used in gene expression experiments. […]

## CC(C)(C)NC(=O)[C@@H]1CN(Cc2cccnc2)CCN1C[C@@H](O)C[C@@H](Cc1ccccc1)C(=O)N[C@H]1c2ccccc2C[C@H]1O [Indinavir]
  GFP expression of the PR cell line (flow cytometry): not green when induced by Dox, unless it is also incubated with the PI IDV
